# According to patent US20250034150A1, “BTK INHIBITORS” (BIOGEN MA INC., priority 2021, published 2025):
# Like-named read-outs stand apart in the source and are kept apart here.
# What was measured:
# BTK = target: T1, BTK (Homo sapiens, UniProt Q06187); assay: In Vitro BTK Kinase Assay: Btk-PolyGAT-LS Assay; assay type: biochemical; settings: active BTK enzyme 0.25 nM, polyGAT 100 nM, 30 minutes, TRF readout; read-out: In Vitro BTK Kinase Assay IC50 Score
# T1 construct: purchased Upstate 14-552
# T1 sequence (Q06187 whole entry): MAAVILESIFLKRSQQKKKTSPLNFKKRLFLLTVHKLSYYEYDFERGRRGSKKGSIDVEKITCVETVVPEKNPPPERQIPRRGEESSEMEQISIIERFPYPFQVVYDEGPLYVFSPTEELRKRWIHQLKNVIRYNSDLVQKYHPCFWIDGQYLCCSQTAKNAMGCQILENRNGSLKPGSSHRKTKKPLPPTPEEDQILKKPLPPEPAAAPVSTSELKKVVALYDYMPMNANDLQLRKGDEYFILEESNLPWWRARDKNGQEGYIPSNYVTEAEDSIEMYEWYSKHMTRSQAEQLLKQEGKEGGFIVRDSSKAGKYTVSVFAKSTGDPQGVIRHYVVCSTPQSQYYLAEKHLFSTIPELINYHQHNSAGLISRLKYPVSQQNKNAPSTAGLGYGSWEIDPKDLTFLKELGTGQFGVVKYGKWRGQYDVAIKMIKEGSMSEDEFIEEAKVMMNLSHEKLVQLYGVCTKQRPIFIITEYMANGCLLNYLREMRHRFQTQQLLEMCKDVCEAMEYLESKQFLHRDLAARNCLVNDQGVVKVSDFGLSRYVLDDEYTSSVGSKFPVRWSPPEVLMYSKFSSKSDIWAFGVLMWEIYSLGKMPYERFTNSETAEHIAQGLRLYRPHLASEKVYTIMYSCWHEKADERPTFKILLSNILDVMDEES
# In short: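 Active BTK at 0.25 nM phosphorylated 100 nM fluorescein-polyGAT peptide at 10 μM ATP for 30 minutes. Buffer was Tris pH 7.5 with MgCl2, DTT, Triton X-100 and casein, and reactions were stopped with EDTA. Phospho-peptide was detected by Tb-PY20 antibody TR-FRET, and IC50 came from a four-parameter fit normalized to DMSO and EDTA controls.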
# [1] = test system: CD69 expression on CD19+ B cells in human whole blood; assay: In Vitro whole blood CD69 Assay; assay type: cell-based; settings: B-cell, read-out: In Vitro HWB CD69 Assay IC50 Score
# Method: Human heparinized venous blood from health donors was aliquoted into 96-well plate and “spiked” with serial dilutions of formula I compounds in DMSO or with DMSO without drug. The final concentration of DMSO in all wells was 0.1%. The plate was incubated at 37° C. for 30 min. Drug-containing samples were stimulated with 0.1 μg/mL mouse anti-human IgD-dextran (1A62) or 20 μg/mL polyclonal rabbit F(ab′)2 anti-human IgD. Phosphate-buffered saline (PBS) was added to the negative control unstimulated sample and the plates were incubated overnight (18 to 22 hours) at 37° C. Cells were stained with fluorochrome-conjugated anti-CD19 and anti-CD69 antibodies. Lyse/fix solution was used to remove red blood cells by hypotonic lysis and to fix the remaining cells, which were then analyzed by flow cytometry. CD19+ B cells were gated and analyzed for CD69 expression.
# [2] = human heparinized whole blood, anti-human IgD stimulation overnight, CD19+ B cells, flow cytometry
SMILES,IC50 (BTK) [nM],"IC50 [1, 2] [nM]",IC50 ([1]; Homo sapiens) [nM]
"Cn1cc(-c2cc3nccn3c(-c3ccc(CNC(=O)c4nc(C5(CF)CC5)no4)cc3)n2)cn1 [Example 63, 3-(1-(fluoromethyl)cyclopropyl)-N-(4-(7-(1-methyl-1H-pyrazol-4-yl)imidazo[1,2-c]pyrimidin-5-yl)benzyl)-1,2,4-oxadiazole-5-carboxamide]",1 to 10,–,1000 to 10000
"Cn1cc(-c2cn3nccc3c(N3CCC(C)(CNC(=O)c4cnc(C(C)(C)C)o4)CC3)n2)cn1 [Example 45, 2-(tert-butyl)-N-((4-methyl-1-(6-(1-methyl-1H-pyrazol-4-yl)pyrazolo[1,5-a]pyrazin-4-yl)piperidin-4-yl)methyl)oxazole-5-carboxamide]",10 to 1000,1000 to 10000,–
"C[C@H]1CN(c2nc(-c3cnn(C)c3)cn3nccc23)CC[C@@H]1CNC(=O)c1noc(C2(C)CC2)n1 (single isomer, unassigned) [Example 148]",1 to 10,1000 to 10000,–
"Cn1cc(-c2cn3nccc3c(N3CCC(C)(CNC(=O)c4noc(C(C)(C)C)n4)CC3)n2)cn1 [Example 41, 5-(tert-butyl)-N-((4-methyl-1-(6-(1-methyl-1H-pyrazol-4-yl)pyrazolo[1,5-a]pyrazin-4-yl)piperidin-4-yl)methyl)-1,2,4-oxadiazole-3-carboxamide]",1 to 10,1000 to 10000,–
"CC1CN(c2nc(-c3cnn(C)c3)cn3nccc23)CCC1CNC(=O)c1noc(C(C)(C)C)n1 (stereo not shown) [Example 144, 5-(tert-butyl)-N-((3-methyl-1-(6-(1-methyl-1H-pyrazol-4-yl)pyrazolo[1,5-a]pyrazin-4-yl)piperidin-4-yl)methyl)-1,2,4-oxadiazole-3-carboxamide]",1 to 10,–,< 1000

# The next lines start with results.
IC50 (BTK) [nM],"IC50 [1, 2] [nM]",SMILES,IC50 ([1]; Homo sapiens) [nM]
1 to 10,1000 to 10000,"CC1CN(c2nc(-c3cnn(C)c3)cn3nccc23)CCC1CNC(=O)c1noc(C2(C)CC2)n1 (stereo not shown) [Example 149, N-((3-methyl-1-(6-(1-methyl-1H-pyrazol-4-yl)pyrazolo[1,5-a]pyrazin-4-yl)piperidin-4-yl)methyl)-5-(1-methylcyclopropyl)-1,2,4-oxadiazole-3-carboxamide]",–
< 1,< 1000,"Cn1cc(-c2cn3nccc3c(-c3ccc(CNC(=O)c4nnn(C(C)(C)C)n4)c(F)c3)n2)cn1 [Example 7, 2-(tert-butyl)-N-(2-fluoro-4-(6-(1-methyl-1H-pyrazol-4-yl)pyrazolo[1,5-a]pyrazin-4-yl)benzyl)-2H-tetrazole-5-carboxamide]",–
< 1,< 1000,"Cn1cc(-c2cn3nccc3c(-c3ccc(CNC(=O)c4nc(C(C)(C)C)no4)c(C(F)F)c3)n2)cn1 [Example 100, 3-(tert-butyl)-N-(2-(difluoromethyl)-4-(6-(1-methyl-1H-pyrazol-4-yl)pyrazolo[1,5-a]pyrazin-4-yl)benzyl)-1,2,4-oxadiazole-5-carboxamide]",–
1 to 10,1000 to 10000,"CC(C)(C)c1nc(C(=O)NCc2ccc(-c3nccn4nccc34)cc2Cl)no1 [Example 82, 5-(tert-butyl)-N-(2-chloro-4-(pyrazolo[1,5-a]pyrazin-4-yl)benzyl)-1,2,4-oxadiazole-3-carboxamide]",–
< 1,< 1000,"Cn1cc(-c2cn3nccc3c(-c3ccc(CNC(=O)c4noc(C5(CF)CC5)n4)cc3)n2)cn1 [Example 20, 5-(1-(fluoromethyl)cyclopropyl)-N-(4-(6-(1-methyl-1H-pyrazol-4-yl)pyrazolo[1,5-a]pyrazin-4-yl)benzyl)-1,2,4-oxadiazole-3-carboxamide]",–
< 1,< 1000,"Cn1cc(-c2cn3nccc3c(-c3ccc(CNC(=O)c4cn(C(C)(C)C)nn4)c(F)c3)n2)cn1 [Example 9, 1-(tert-butyl)-N-(2-fluoro-4-(6-(1-methyl-1H-pyrazol-4-yl)pyrazolo[1,5-a]pyrazin-4-yl)benzyl)-1H-1,2,3-triazole-4-carboxamide]",–
